Source: article PMC9611727, “Optimization of a Novel Mandelamide-Derived Pyrrolopyrimidine Series of PERK Inhibitors” (Pharmaceutics, 2022)
Where two headings read alike, the source gives them in different places.

Legend:
[1] = Plasma protein binding (RED dialysis), dog; assay type: in vitro ADME; conditions: male, beagle, pH 7.4
Source text: (§1) Verapamil hydrochloride and tamoxifen were obtained from Sigma-Aldrich. […]
(§2) Pooled mixed gender human donor plasma, Sprague Dawley male rat plasma, CD-1 (ICR) male mouse plasma and male beagle dog plasma were obtained from Bioreclamation Inc. (Westbury, NY). Reusable Teflon base plate, RED Device inserts, and BupH Phosphate Buffered Saline packs (0.1 M sodium phosphate and 0.15 M sodium chloride when dissolved in 0.5 L water) were obtained from Thermo Scientific (Waltham, MA). Propranolol was obtained from Sigma-Aldrich (St. Louis, MO). All solvents were obtained from commercial sources and used without further purification.
(§3) Frozen plasma was thawed and the pH of plasma and BupH phosphate buffered saline was adjusted to 7.4 prior to dialysis. Into each well of a reusable Teflon 48-well base plate a RED insert was placed open end up. Ten microliters (10 µL) of the test compound (0.1 mM in acetonitrile/water, 1:1 v/v) was added to 990 µL of plasma to achieve 1 µM final concentration. The spiked plasma (200 µL) was added to the sample chamber, which is indicated by the red retainer ring (donor side). To the other side (receiver side), 350 µL of BupH phosphate buffered saline (pH 7.4) was added. A buffer-to-buffer assay was also performed to measure equilibrium across the membrane in the absence of plasma protein.
(§4) Propranolol was used as a positive control. All samples were prepared in triplicate. The RED device base plate was then sealed and placed in a shaking incubator set to maintain 37°C and 200 rpm for four hours.
(§5) After incubation, 100 µL of each sample was combined with an equal volume of either plasma or buffer, to create a similar matrix for all samples. Blank buffer was added to plasma samples, and vice versa. Samples from the incubation, along with the original compound-spiked plasma samples, were prepared for analysis in the same manner. Protein precipitation by addition of two parts of ice-cold acetonitrile to one part of reaction volume was carried out. To ensure complete protein precipitation samples were sealed and placed overnight at 4°C. The next morning samples were centrifuged at 3,600 rpm for 15 minutes. The supernatants (70 µL) were supplemented with an equal volume of internal standard solution (0.15 µM verapamil in water) and subjected to LC-MS/MS analysis.

[2] = Caco-2 permeability / efflux; assay type: in vitro ADME; conditions: human, Caco-2, pH 7.4; for efflux ratio at 120 min, 5 µM: Papp (B-to-A) / Papp (A-to-B)
Protocol: P-gp Substrate Assessment using Caco-2 Monolayers
Caco-2 cells (clone C2BBe1) were obtained from American Type Culture Collection (Manassas, VA). Hanks’ balanced salt solution, valspodar and lucifer yellow were obtained from Sigma-Aldrich (St. Louis, MO). All solvents were obtained from commercial sources and used without further purification. Cell monolayers were grown to confluence on collagen-coated, microporous membranes in 12-well assay plates. Details of the plates and their certification are shown below. The permeability assay buffer was Hanks’ balanced salt solution (HBSS) containing 10 mM HEPES and 15 mM glucose at a pH of 7.4. The buffer in the receiver chamber also contained 1% bovine serum albumin. The dosing solution concentration was 5 μM of test article in the assay buffer +/- 1 μM valspodar. Cells were first pre-incubated for 30 minutes with HBSS containing +/- 1 μM valspodar. Cell monolayers were dosed on the apical side (A-to-B) or basolateral side (B-to-A) and incubated at 37°C with 5% CO2 in a humidified incubator. Samples were taken from the donor and receiver chambers at 120 minutes. Each determination was performed in duplicate. The flux of lucifer yellow was also measured post-experimentally for each monolayer to ensure no damage was inflicted to the cell monolayers during the flux period. All samples were assayed by LC-MS/MS using electrospray ionization.
LC-MS/MS Analysis using the PE Sciex API 4000 mass spectrometer […]
Column: Waters ACQUITY UPLC BEH Phenyl 30 × 2.1 mm, 1.7 µm
Mobile Phase Buffer: 25 mM ammonium formate buffer, pH 3.5
Aqueous Reservoir (A): 90% water, 10% buffer
Organic Reservoir (B): 90% acetonitrile, 10% buffer
Total Run Time: 1.00 minute
Autosampler: 10 µL injection volume
Wash1: water/methanol/2-propanol:1/1/1; with 0.2% formic acid
Wash2: 0.1% formic acid in water
Instrument: PE SCIEX API 4000
Interface: Turbo Ionspray
Mode: Multiple Reaction Monitoring (Negative ion mode)
Method: 1.0 minute duration
Mass Spectrometer Settings
Data Analysis and Calculations
The apparent permeability (Papp) and percent recovery were calculated as follows:
Papp = (dCr/dt) × Vr/(A × CA)
Percent recovery = 100 × ((V × Cfinal) + (V × Cfinal)) / (V × C ) […]
dCr/dt is the slope of the cumulative receiver concentration versus time in µM s-1;
Vr is the volume of the receiver compartment in cm3;
Vd is the volume of the donor compartment in cm3;
A is the area of the insert (1.13 cm2 for 12-well);
CA is the average of the nominal dosing concentration and the measured 120 minute donor concentration in μM;
CN is the nominal concentration of the dosing solution in μM;
Cfinal is the cumulative receiver concentration in μM at the end of the incubation period; […]
Cd is the concentration of the donor in μM at the end of the incubation period.
Efflux ratio (ER) is defined as Papp (B-to-A) / Papp (A-to-B). […]

[3] = Plasma protein binding (RED dialysis), rat; assay type: in vitro ADME; conditions: male, Sprague Dawley, pH 7.4
Source text: as §1, §2, §3, §4, §5

[4] = Plasma protein binding (RED dialysis), human; assay type: in vitro ADME; conditions: both sexes, pooled human plasma, pH 7.4
Source text: as §1, §2, §3, §4, §5

[5] = system: p-eIF2α; assay: Cellular PERK inhibition: p-eIF2a TR-FRET in tunicamycin-treated HEK293-EGFP-eIF2a cells; assay type: cell-based
Protocol: Methods used to evaluate in vitro cellular PERK inhibition are described and published elsewhere. In brief, stableHEK293 cells were created using lentiviral particles harboring a GFP-eIF2a expression vector. Transfectants were selected by puromycin and enriched using fluorescent cell sorting based on GFP expression. HEK293-EGFP-eIF2a cells were plated at 5000 cells/well in 384-well assay plates and incubated overnight. The following day, pyrrolopyrimidine analogs were added to wells using an Echo acoustic dispenser and incubated for 30 min. ER stress was induced by the addition of tunicamycin to the wells at […] for 2 h. Cells were lysed and peIF2a was evaluated using a TR-FRET system, as described above.
The PERK activity of analog I was evaluated using cell-free biochemical assays. In these assays, PERK phosphorylation of eIF2a was assessed using a FRET-based labelled protein assay. Compounds were then evaluated for cellular activity by quantifying inhibition of eIF2a phosphorylation in HEK293 cells treated with the ER inducer tunicamycin [7].

[6] = Homo sapiens, HEK293 cells, tunicamycin-induced ER stress, read-out: p-eIF2α IC50

Row | SMILES | fraction unbound at 4 h, 1 µM [1] | Papp A→B at 120 min, 5 µM [2] [×10⁻⁶ cm/s] | efflux ratio at 120 min, 5 µM [2] | fraction unbound at 4 h, 1 µM [3] | fraction unbound at 4 h, 1 µM [4] | IC50 [5, 6] [nM] | IC50 ([5]; bound stated, read-out: cellular potency) [nM]
1 | Cc1nc(N)c2c(-c3cc(F)c(NC(=O)[C@H](O)c4cccc(F)c4)cc3C)cn(C)c2n1 [Compound 66] | 0.018 | 24 | 1.5 | 0.014 | 0.007 | 42 | –
2 | Cc1nc(N)c2c(-c3ccc(NC(=O)[C@H](O)c4cccc(F)c4)c(F)c3F)cn(C)c2n1 [Compound 70, (R)-N-(4-(4-amino-2,7-dimethyl-7H-pyrrolo[2,3-d]pyrimidin-5-yl)-2,3-difluorophenyl)-2-(3-fluorophenyl)-2-hydroxyacetamide] | 0.006 | 29 | 1.7 | 0.007 | 0.006 | 24 | –
3 | Cc1nc(N)c2c(-c3ccc(NC(=O)[C@H](O)c4cccc(C(F)(F)F)c4)cc3C)cn(C)c2n1 [Compound 26] | 0.005 | 21 | 2.2 | 0.002 | 0.002 | 15 | –
4 | Cc1nc(N)c2c(-c3ccc(NC(=O)[C@H](O)c4cccc(F)c4)c(F)c3C)cn(C)c2n1 [Compound 65] | 0.013 | 26 | 1.6 | 0.011 | 0.004 | 30 | –
5 | Cc1nc(N)c2c(-c3ccc(NC(=O)[C@H](O)c4cccc(F)c4)cc3C)cn(C)c2n1 [Compound 24] | 0.03 | 9 | 5.2 | 0.009 | 0.008 | 51 | –

The remaining lines, values ahead:

Row | fraction unbound at 4 h, 1 µM [1] | Papp A→B at 120 min, 5 µM [2] [×10⁻⁶ cm/s] | efflux ratio at 120 min, 5 µM [2] | fraction unbound at 4 h, 1 µM [3] | fraction unbound at 4 h, 1 µM [4] | IC50 [5, 6] [nM] | IC50 ([5]; bound stated, read-out: cellular potency) [nM] | SMILES
6 | 0.016 | 19 | 1.9 | 0.009 | 0.01 | 14 | – | Cc1nc(N)c2c(-c3ccc(NC(=O)[C@H](O)c4cc(F)cc(F)c4)cc3C)cn(C)c2n1 [Compound 38]
7 | 0.017 | 23 | 1.9 | 0.003 | 0.002 | 16 | – | Cc1nc(N)c2c(-c3ccc(NC(=O)[C@H](O)c4cccc(Cl)c4)cc3C)cn(C)c2n1 [Compound 28]
8 | < 0.001 | 16 | 2 | 0.001 | 0.001 | 11 | – | Cc1nc(N)c2c(-c3ccc(NC(=O)[C@H](O)c4cc(F)cc(C(F)(F)F)c4)cc3C)cn(C)c2n1 [Compound 39]
9 | – | – | – | – | – | 8.4 | – | Cc1cc(NC(=O)[C@H](O)c2cccc(F)c2)ccc1-c1cn(C)c2ncnc(N)c12 [Compound 11, (R)-N-(4-(4-amino-7-methyl-7H-pyrrolo[2,3-d]pyrimidin-5-yl)-3-methylphenyl)-2-(3-fluorophenyl)-2-hydroxy acetamide]
10 | 0.012 | 20 | 2.5 | 0.005 | 0.004 | 10 | – | Cc1cc(F)cc([C@@H](O)C(=O)Nc2ccc(-c3cn(C)c4nc(C)nc(N)c34)c(C)c2)c1 [Compound 41]
11 | 0.004 | 24 | 1.6 | 0.004 | 0.001 | 10 | < 15 | Cc1nc(N)c2c(-c3ccc(NC(=O)[C@H](O)c4cccc(Cl)c4)cc3F)cn(C)c2n1 [Compound 48]
